What all share (experiment): TGFα-shedding assay-based GPCR screening with chimeric Gα subunit proteins
Common to all, as to type: cell-based

The target in test [1] is T1, 348 GPCRs (Homo sapiens, UniProt P41587).
T1 construct: expressed in transfected cells; host or cells: HEK293A
T1 sequence (P41587 24-438): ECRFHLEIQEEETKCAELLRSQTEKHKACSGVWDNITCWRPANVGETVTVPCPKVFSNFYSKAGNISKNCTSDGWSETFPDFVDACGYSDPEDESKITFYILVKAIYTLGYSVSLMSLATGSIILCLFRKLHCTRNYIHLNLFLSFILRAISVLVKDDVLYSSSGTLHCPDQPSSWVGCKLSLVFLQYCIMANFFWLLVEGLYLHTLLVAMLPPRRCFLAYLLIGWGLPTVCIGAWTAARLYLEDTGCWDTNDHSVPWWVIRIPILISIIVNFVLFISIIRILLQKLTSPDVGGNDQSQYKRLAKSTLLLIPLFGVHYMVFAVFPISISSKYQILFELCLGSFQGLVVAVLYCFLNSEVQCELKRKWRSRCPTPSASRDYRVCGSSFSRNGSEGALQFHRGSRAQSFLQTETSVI

Test [2] addresses T2, 348 GPCRs (Homo sapiens, UniProt P46094).
T2 construct: expressed in transfected cells; host or cells: HEK293A
T2 sequence (P46094 1-333): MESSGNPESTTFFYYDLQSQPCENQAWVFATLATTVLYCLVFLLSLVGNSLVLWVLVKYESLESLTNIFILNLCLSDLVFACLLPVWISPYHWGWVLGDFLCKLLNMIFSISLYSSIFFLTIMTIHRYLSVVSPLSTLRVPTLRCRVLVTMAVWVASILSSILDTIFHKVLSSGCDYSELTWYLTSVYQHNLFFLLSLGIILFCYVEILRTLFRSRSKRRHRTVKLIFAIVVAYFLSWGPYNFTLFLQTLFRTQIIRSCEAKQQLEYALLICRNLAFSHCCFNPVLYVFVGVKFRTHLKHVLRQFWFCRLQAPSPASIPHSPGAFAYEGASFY

Test [3] concerns the target T3, 348 GPCRs (Homo sapiens, UniProt P33032).
T3 construct: expressed in transfected cells; host or cells: HEK293A

In test [4] the target is T4, 348 GPCRs (Homo sapiens, UniProt O00155).
T4 construct: expressed in transfected cells; host or cells: HEK293A
Conditions: 10µM, Favipiravir 100μM.

Test [5] concerns the target T5, 348 GPCRs (Homo sapiens, UniProt P21730).
T5 construct: expressed in transfected cells; host or cells: HEK293A
T5 sequence (P21730 1-350): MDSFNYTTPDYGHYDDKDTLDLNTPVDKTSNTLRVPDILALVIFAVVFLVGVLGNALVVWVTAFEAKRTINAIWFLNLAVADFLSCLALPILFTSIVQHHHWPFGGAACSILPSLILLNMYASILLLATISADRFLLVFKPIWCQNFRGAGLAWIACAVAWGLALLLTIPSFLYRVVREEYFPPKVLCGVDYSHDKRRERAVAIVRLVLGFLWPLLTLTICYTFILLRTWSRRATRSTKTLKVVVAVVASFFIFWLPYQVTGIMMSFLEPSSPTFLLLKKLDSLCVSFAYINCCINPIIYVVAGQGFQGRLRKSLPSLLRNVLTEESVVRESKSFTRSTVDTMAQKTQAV
Particulars: 10µM, Favipiravir 100μM.

Test [6] has as its target T6, 348 GPCRs (Homo sapiens, UniProt P49286).
T6 construct: expressed in transfected cells; host or cells: HEK293A
T6 sequence (P49286 1-362): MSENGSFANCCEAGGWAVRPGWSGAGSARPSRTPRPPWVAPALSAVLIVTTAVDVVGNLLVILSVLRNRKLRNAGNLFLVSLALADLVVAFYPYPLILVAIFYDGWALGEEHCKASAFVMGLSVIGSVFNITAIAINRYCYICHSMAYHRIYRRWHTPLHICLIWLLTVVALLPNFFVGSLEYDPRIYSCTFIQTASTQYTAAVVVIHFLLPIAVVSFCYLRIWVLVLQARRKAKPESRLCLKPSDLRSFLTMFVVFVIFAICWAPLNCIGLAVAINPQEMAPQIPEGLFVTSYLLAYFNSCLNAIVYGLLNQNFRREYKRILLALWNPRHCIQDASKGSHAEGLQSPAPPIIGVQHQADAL
Particulars: 10µM, Favipiravir 100μM.

The mark [7] stands for this setting: GPR25 (G Protein-Coupled Receptor 25), read-out: % GPCR activation compared to TPA.
[8] abbreviates: C5AR1 (complement C5a receptor 1), read-out: % GPCR activation compared to TPA.
Setting [9] is: MT2R (melatonin receptor type 1B), read-out: % GPCR activation compared to TPA.
[10] abbreviates: read-out: % GPCR activation compared to TPA, GPCR VIPR2 (vasoactive intestinal peptide receptor 2).
Where [11] appears, read: read-out: % GPCR activation compared to TPA, GPCR XCR1 (chemokine (C motif) receptor 1/GPR5).
Setting [12] is: read-out: % GPCR activation compared to TPA, GPCR MC5R (melanocortin 5 receptor).
The mark [13] stands for this setting: read-out: % GPCR activation compared to TPA, GPR25 (G Protein-Coupled Receptor 25).
[14] abbreviates: read-out: % GPCR activation compared to TPA, C5AR1 (complement C5a receptor 1).
Setting [15] is: read-out: % GPCR activation compared to TPA, MT2R (melatonin receptor type 1B).
Setting [16] is: GPCR VIPR2 (vasoactive intestinal peptide receptor 2), read-out: % GPCR activation compared to TPA.
The mark [17] stands for this setting: GPCR XCR1 (chemokine (C motif) receptor 1/GPR5), read-out: % GPCR activation compared to TPA.
Where [18] appears, read: GPCR MC5R (melanocortin 5 receptor), read-out: % GPCR activation compared to TPA.

Where two headings read alike, the source gives them in different places.

This passage reports activation results from paper PMC10175918 (Communications Biology, 2023).

T3 sequence (P33032 whole entry): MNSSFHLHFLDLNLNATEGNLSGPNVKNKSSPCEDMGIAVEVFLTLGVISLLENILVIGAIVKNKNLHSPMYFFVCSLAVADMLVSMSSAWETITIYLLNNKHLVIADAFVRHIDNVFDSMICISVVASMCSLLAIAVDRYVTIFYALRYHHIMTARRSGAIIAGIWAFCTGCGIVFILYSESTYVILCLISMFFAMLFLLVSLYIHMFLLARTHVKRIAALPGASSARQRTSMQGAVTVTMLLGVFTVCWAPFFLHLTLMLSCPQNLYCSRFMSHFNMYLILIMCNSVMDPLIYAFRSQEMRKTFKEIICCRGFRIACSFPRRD
T4 sequence (O00155 whole entry): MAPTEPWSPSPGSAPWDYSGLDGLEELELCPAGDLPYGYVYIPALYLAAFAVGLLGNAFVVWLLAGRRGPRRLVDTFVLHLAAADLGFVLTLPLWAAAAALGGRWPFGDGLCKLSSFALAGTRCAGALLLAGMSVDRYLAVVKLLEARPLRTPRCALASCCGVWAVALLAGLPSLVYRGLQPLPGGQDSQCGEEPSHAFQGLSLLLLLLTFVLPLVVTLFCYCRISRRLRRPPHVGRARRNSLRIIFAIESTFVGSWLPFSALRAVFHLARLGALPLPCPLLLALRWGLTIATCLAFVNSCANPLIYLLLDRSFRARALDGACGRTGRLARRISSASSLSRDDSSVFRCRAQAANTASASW

With `NC(=O)c1nc(F)cnc1O` [favipiravir, 6-fluoro-3-hydroxy-2-pyrazinecarboxamide], the activation at 100 µM on 348 GPCRs [1] (GPCR VIPR2 (vasoactive intestinal peptide receptor 2), 100μM, read-out: % GPCR activation compared to TPA) was -0.699%; at 348 GPCRs [2] (GPCR XCR1 (chemokine (C motif) receptor 1/GPR5), 100μM, read-out: % GPCR activation compared to TPA), 0.846%; on 348 GPCRs [3] (GPCR MC5R (melanocortin 5 receptor), 100μM, read-out: % GPCR activation compared to TPA), -0.921%; on 348 GPCRs [4] (setting [7]), -2.15%. Further, the activation at 10 µM is -6.83% on 348 GPCRs [5] (setting [8]) and -4.78% at 348 GPCRs [6] (setting [9]).
In the case of `CC(C)OC(=O)[C@H](C)N[P@](=O)(OC[C@H]1O[C@@H](n2ccc(=O)[nH]c2=O)[C@](C)(F)[C@@H]1O)Oc1ccccc1` [sofosbuvir], the activation at 10 µM on 348 GPCRs [1] (setting [10]) was 1.3%; at 348 GPCRs [2] (setting [11]), -0.208%; at 348 GPCRs [3] (setting [12]) it was -2.87%; at 348 GPCRs [5] (setting [14]), -2.89%; at 348 GPCRs [6] (setting [15]), -2.8%. Also, the activation at 100 µM on 348 GPCRs [4] (setting [13]) is -0.661%.
Take `CCC(CC)COC(=O)[C@H](C)N[P@](=O)(OC[C@H]1O[C@@](C#N)(c2ccc3c(N)ncnn23)[C@H](O)[C@@H]1O)Oc1ccccc1` [remdesivir]: the activation at 10 µM is 0.502% at 348 GPCRs [1] (setting [10]); 0.628% on 348 GPCRs [2] (setting [11]); 1.31% on 348 GPCRs [3] (setting [12]); -1.43% at 348 GPCRs [5] (setting [14]); -2.11% on 348 GPCRs [6] (setting [15]). Moreover, the activation at 100 µM on 348 GPCRs [4] (setting [13]) was -2.29%.
`N#C[C@@]1(c2ccc3c(N)ncnn23)O[C@H](CO)[C@@H](O)[C@H]1O` [GS441524]: the activation at 10 µM at 348 GPCRs [1] (setting [16]) was -0.864%; on 348 GPCRs [2] (setting [17]), -1.92%; at 348 GPCRs [3] (setting [18]), 0.908%; at 348 GPCRs [5] (setting [8]), -2.17%; at 348 GPCRs [6] (setting [9]), -2.97%. In addition, the activation at 100 µM at 348 GPCRs [4] (setting [7]) was -1.73%.
With `CC(C)C(=O)OC[C@H]1O[C@@H](n2ccc(NO)nc2=O)[C@H](O)[C@@H]1O` [molnupiravir], the activation at 10 µM at 348 GPCRs [1] (setting [16]) was -0.156%; at 348 GPCRs [2] (setting [17]), -0.399%; on 348 GPCRs [3] (setting [18]) it was -1.47%; at 348 GPCRs [5] (setting [8]) it was -2.78%; on 348 GPCRs [6] (setting [9]), -1.78%. Further, on 348 GPCRs [4] (setting [7]), the activation at 100 µM was -2.16%.
